# Measurements: patent publication US20230146455A1, “TREATMENT OF INFLAMMATORY DISEASES WITH PEPTIDES AND PHARMACEUTICAL COMPOSITIONS” (Yuyu Pharma, Inc., priority 2020, published 2023)
# Several values for one entry are separate records, joined by “and”; a condition that tells them apart may be missing. Identical values can stand only once. Where a SMILES comes first, the peptide text is derived from it. [ ]: non-standard residue; d: D form. Hyp = O=C(O)[C@@H]1C[C@@H](O)CN1
# Test system: CCL2/MCP-1
# Experiment: Example 8 main study Luminex, LPS hPBMCs: CCL2/MCP-1
# Format: cell-based, human
# Conditions: for CCL2/MCP-1 Concentration: single replicates; for LPS-induced CCL-2 (in words): at as low as 5 μM, LPS 5 ug/mL 24 hrs
# Procedure: Human PBMCs were pretreated with YY-101, YDE-011, YDE-043 or reference compound; Xiidra® at various concentration (ranging from […] to 500 nM) for 2 h before stimulation. An equal volume of 0.5% DMSO was used as a vehicle control. Then, the cells were treated with LPS at 5 ug/ml, which was selected based on the pilot study. The supernatants from treated cells were harvested at 24 h and placed in a 96 well for Luminex cytokine & chemokine profiling using a Luminex 200 multiplex assay (Luminex; R&D system, USA).
# The main study arm with triplicate wells per group in a 24-well plate: • 1. Blank • 2. PBMC: 0.5% DMSO • 3. PBMC+LPS (5 ug/ml) • 4. PBMC+YY-101 500 nM • 5. PBMC+YY-101 50 nM • 6. PBMC+YY-101 5 nM • 7. PBMC+YY-101 0.5 nM • 8. PBMC+LPS (5 ug/ml)+Xiidra® 500 nM • 9. PBMC+LPS (5 ug/ml)+Xiidra® 50 nM • 10. PBMC+LPS (5 ug/ml)+Xiidra® 5 nM • 11. PBMC+LPS (5 ug/ml)+Xiidra® 0.5 nM • 12. PBMC+LPS (5 ug/ml)+Xiidra® 0.05 nM • 13. PBMC+LPS (5 ug/ml)+Xiidra® 0.005 nM • 14. PBMC+LPS (5 ug/ml)+YY-101 500 nM • 15. PBMC+LPS (5 ug/ml)+YY-101 50 nM • 16. PBMC+LPS (5 ug/ml)+YY-101 5 nM • 17. PBMC+LPS (5 ug/ml)+YY-101 0.5 nM • 18. PBMC+LPS (5 ug/ml)+YY-101 0.05 nM • 19. PBMC+LPS (5 ug/ml)+YY-101 0.005 nM • 20. PBMC+LPS (5 ug/ml)+YDE-011 500 nM • 21. PBMC+LPS (5 ug/ml)+YDE-011 50 nM • 22. PBMC+LPS (5 ug/ml)+YDE-011 5 nM • 23. PBMC+LPS (5 ug/ml)+YDE-011 0.5 nM • 24. PBMC+LPS (5 ug/ml)+YDE-011 0.05 nM • 25. PBMC+LPS (5 ug/ml)+YDE-011 0.005 nM • 26. PBMC+LPS (5 ug/ml)+YDE-043 500 nM • 27. PBMC+LPS (5 ug/ml)+YDE-043 50 nM • 28. PBMC+LPS (5 ug/ml)+YDE-043 5 nM • 29. PBMC+LPS (5 ug/ml)+YDE-043 0.5 nM • 30. PBMC+LPS (5 ug/ml)+YDE-043 0.05 nM • 31. PBMC+LPS (5 ug/ml)+YDE-043 0.005 nM
# Multiplex assay was used to measure 30 cytokines and chemokines. The 1:200 diluted cell supernatant and serial dilution of the standard were dispensed into a 96 well plate at 50 ul/well. Then, the pre-mixed cocktail of antibody-coated magnetic beads was dispensed at 50 ul/well and incubated at room temperature for 2 h in a horizontal orbital microplate shaker at 800±500 rpm. The beads were washed using a magnetic device to prevent loss. The biotin-antibody was dispensed in 50 ul of each well and incubated at room temperature for 1 h in a shaker at 800±500 rpm. After washing, streptavidin-PE was added at 50 ul/well and incubated at room temperature for 30 min in a shaker under the same conditions. Finally, after washing, wash buffer (100 ul/well) was added to the plate and incubated in a shaker for 2 min. The Luminex™ 200 setting were set according to the manufacturer's protocol. The data was calculated with a standard five-parameter logistic nonlinear regression analysis of the data (xPonent software 4.2, USA). Results were presented as concentration (ng/ml or pg/ml).
# [1] = PBMC + LPS(5 ug/ml) + YY101 0.005 nM
# [2] = PBMC + LPS(5 ug/ml) + YY101 0.05 nM
# [3] = PBMC + LPS(5 ug/ml) + YY101 0.5 nM
# [4] = PBMC + LPS(5 ug/ml) + YY101 5 nM
# [5] = PBMC + LPS(5 ug/ml) + YY101 50 nM
# [6] = PBMC + LPS(5 ug/ml) + YY101 500 nM
# [7] = PBMC + LPS(5 ug/ml) + YDE043 0.005 nM
# [8] = PBMC + LPS(5 ug/ml) + YDE043 0.05 nM
# [9] = PBMC + LPS(5 ug/ml) + YDE043 0.5 nM
# [10] = PBMC + LPS(5 ug/ml) + YDE043 5 nM
# [11] = PBMC + LPS(5 ug/ml) + YDE043 50 nM
# [12] = PBMC + LPS(5 ug/ml) + YDE043 500 nM
# [13] = PBMC + LPS(5 ug/ml) + YDE011 0.005 nM
# [14] = PBMC + LPS(5 ug/ml) + YDE011 0.05 nM
# [15] = PBMC + LPS(5 ug/ml) + YDE011 0.5 nM
# [16] = PBMC + LPS(5 ug/ml) + YDE011 5 nM
# [17] = PBMC + LPS(5 ug/ml) + YDE011 50 nM
# [18] = PBMC + LPS(5 ug/ml) + YDE011 500 nM
structure (smiles),measurement,setting,value
CC(C)C[C@H](NC(=O)CNC(=O)[C@H](CC(=O)O)NC(=O)[C@H](CCC(N)=O)NC(=O)CNC(=O)[C@@H]1C[C@@H](O)CN1)C(=O)N[C@@H](C)C(=O)NCC(=O)N1CCC[C@H]1C(=O)N[C@@H](CCCCN)C(=O)O [YY-101] (H-[Hyp]GQDGLAGPK-OH; N-terminus and C-terminus assumed),"CCL2/MCP-1 Concentration, Mean",[1],4528.1 pg/mL
same,CCL2/MCP-1 Concentration,[1],4528.4 pg/mL and 4630.2 pg/mL and 4425.5 pg/mL
same,"CCL2/MCP-1 Concentration, Mean",[2],4596.0 pg/mL
same,CCL2/MCP-1 Concentration,[2],4528.4 pg/ml (2×) and 4731.0 pg/ml
same,"CCL2/MCP-1 Concentration, Mean",[3],4596.3 pg/mL
same,CCL2/MCP-1 Concentration,[3],4630.2 pg/ml (2×) and 4528.4 pg/ml
same,"CCL2/MCP-1 Concentration, Mean",[4],4629.9 pg/mL
same,CCL2/MCP-1 Concentration,[4],4630.2 pg/mL and 4528.4 pg/mL and 4731.0 pg/mL
same,"CCL2/MCP-1 Concentration, Mean",[5],4613.3 pg/mL
same,CCL2/MCP-1 Concentration,[5],4579.5 pg/ml and 4630.2 pg/ml (2×)
same,"CCL2/MCP-1 Concentration, Mean",[6],4459.8 pg/mL
same,CCL2/MCP-1 Concentration,[6],4425.5 pg/ml (2×) and 4528.4 pg/ml
same,"CCL2/MCP-1 Concentration, Mean","PBMC + YY101 0.5 nM, no LPS",4679.6 pg/mL
same,CCL2/MCP-1 Concentration,"PBMC + YY101 0.5 nM, no LPS",4528.4 pg/mL and 4830.8 pg/mL
same,"CCL2/MCP-1 Concentration, Mean","PBMC + YY101 5 nM, no LPS",4425.5 pg/mL
same,CCL2/MCP-1 Concentration,"PBMC + YY101 5 nM, no LPS",4425.5 pg/mL
same,"CCL2/MCP-1 Concentration, Mean","PBMC + YY101 0.05 uM, no LPS",5025.5 pg/mL
same,CCL2/MCP-1 Concentration,"PBMC + YY101 0.05 uM, no LPS",5782.0 pg/mL and 4269.1 pg/mL
same,"CCL2/MCP-1 Concentration, Mean","PBMC + YY101 50 nM, no LPS",4373.5 pg/mL
same,CCL2/MCP-1 Concentration,"PBMC + YY101 50 nM, no LPS",4321.5 pg/mL and 4425.5 pg/mL
same,"CCL2/MCP-1 Concentration, Mean","PBMC + YY101 500 nM, no LPS",4475.9 pg/mL
same,CCL2/MCP-1 Concentration,"PBMC + YY101 500 nM, no LPS",4321.5 pg/mL and 4630.2 pg/mL
same,LPS-induced CCL-2 (in words),,significantly reduced
CC(C)C[C@H](NC(=O)[C@H](CCC(N)=O)NC(=O)CNC(=O)[C@@H]1C[C@@H](O)CN1)C(=O)NCC(=O)O [YDE-043] (H-[Hyp]GQLG-OH; N-terminus and C-terminus assumed),"CCL2/MCP-1 Concentration, Mean",[7],4629.2 pg/mL
same,CCL2/MCP-1 Concentration,[7],4425.5 pg/ml and 4731.0 pg/ml (2×)
same,"CCL2/MCP-1 Concentration, Mean",[8],4545.3 pg/mL
same,CCL2/MCP-1 Concentration,[8],4528.4 pg/mL and 4477.1 pg/mL and 4630.2 pg/mL
same,"CCL2/MCP-1 Concentration, Mean",[9],4390.9 pg/mL
same,CCL2/MCP-1 Concentration,[9],4425.5 pg/ml (2×) and 4321.5 pg/ml
same,"CCL2/MCP-1 Concentration, Mean",[10],4562.3 pg/mL
same,CCL2/MCP-1 Concentration,[10],4579.5 pg/mL and 4477.1 pg/mL and 4630.2 pg/mL
same,"CCL2/MCP-1 Concentration, Mean",[11],4578.9 pg/mL
same,CCL2/MCP-1 Concentration,[11],4528.4 pg/mL and 4731.0 pg/mL and 4477.1 pg/mL
same,"CCL2/MCP-1 Concentration, Mean",[12],4630.2 pg/mL
same,CCL2/MCP-1 Concentration,[12],4630.2 pg/mL
same,LPS-induced CCL-2 (in words),,significantly reduced
CC(C)C[C@H](NC(=O)CNC(=O)[C@H](CC(C)C)NC(=O)[C@H](CCC(N)=O)NC(=O)CNC(=O)[C@@H]1C[C@@H](O)CN1)C(=O)N[C@@H](C)C(=O)NCC(=O)N1CCC[C@H]1C(=O)N[C@@H](CCCCN)C(=O)O [YDE-011] (H-[Hyp]GQLGLAGPK-OH),"CCL2/MCP-1 Concentration, Mean",[13],4425.2 pg/mL
same,CCL2/MCP-1 Concentration,[13],4425.5 pg/mL and 4528.4 pg/mL and 4321.5 pg/mL
same,"CCL2/MCP-1 Concentration, Mean",[14],4442.7 pg/mL
same,CCL2/MCP-1 Concentration,[14],4425.5 pg/ml (2×) and 4477.1 pg/ml
same,"CCL2/MCP-1 Concentration, Mean",[15],4303.7 pg/mL
same,CCL2/MCP-1 Concentration,[15],4425.5 pg/mL and 4269.1 pg/mL and 4216.3 pg/mL
same,"CCL2/MCP-1 Concentration, Mean",[16],4178.7 pg/mL
same,CCL2/MCP-1 Concentration,[16],3893.1 pg/ml and 4321.5 pg/ml (2×)
same,"CCL2/MCP-1 Concentration, Mean",[17],4173.5 pg/mL
same,CCL2/MCP-1 Concentration,[17],4528.4 pg/mL and 3670.6 pg/mL and 4321.5 pg/mL
same,"CCL2/MCP-1 Concentration, Mean",[18],4170.5 pg/mL
same,CCL2/MCP-1 Concentration,[18],4731.0 pg/mL and 3670.6 pg/mL and 4109.9 pg/mL
same,LPS-induced CCL-2 (in words),,significantly reduced
